Laboratory results published in paper PMC8494430, “Development of a fluorogenic ADAMTS-7 substrate” (Journal of Enzyme Inhibition and Medicinal Chemistry, 2021).

How the values were obtained:
ADAMTS-4 = molecular target: T1, ADAMTS-4 (Homo sapiens, UniProt O75173); experiment: Cleavage of ATS7FP7 by ADAMTS-4 (kinetic constants); type: biochemical; settings: cleavage of ATS7FP7 by ADAMTS-4 (10 nM), 37 °C
T1 construct: made in house
T1 sequence (O75173 213-837): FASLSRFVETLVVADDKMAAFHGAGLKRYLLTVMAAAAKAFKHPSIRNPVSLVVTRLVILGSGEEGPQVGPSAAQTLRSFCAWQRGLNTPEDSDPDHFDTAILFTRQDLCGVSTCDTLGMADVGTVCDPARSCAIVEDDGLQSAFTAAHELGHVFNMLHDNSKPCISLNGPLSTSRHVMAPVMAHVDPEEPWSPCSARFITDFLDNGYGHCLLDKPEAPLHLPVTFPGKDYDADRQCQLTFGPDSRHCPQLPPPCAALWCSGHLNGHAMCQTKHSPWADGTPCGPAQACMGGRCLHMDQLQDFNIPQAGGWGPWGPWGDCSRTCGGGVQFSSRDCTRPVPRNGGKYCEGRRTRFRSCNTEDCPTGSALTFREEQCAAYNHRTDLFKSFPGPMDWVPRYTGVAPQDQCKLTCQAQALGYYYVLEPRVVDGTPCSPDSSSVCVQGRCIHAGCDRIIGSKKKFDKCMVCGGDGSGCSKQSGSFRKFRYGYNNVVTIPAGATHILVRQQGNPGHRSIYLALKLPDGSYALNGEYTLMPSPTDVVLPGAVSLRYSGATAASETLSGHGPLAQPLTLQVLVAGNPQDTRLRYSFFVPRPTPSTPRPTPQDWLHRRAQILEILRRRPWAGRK
Experimental: All enzyme assays were conducted in TNC-B buffer (50 mM Tris- HCl, pH 7.5, 150 mM NaCl, 10 mM CaCl2, and 0.02% NaN3) at 37 °C in 384 well plates (Cat. No: 784900, Greiner Bio-One, Austria). To avoid the formation of inhibitor or peptide aggregates, the detergent Brij-35 (0.05%) was added to TNC-B[13]. For inhibition studies, stock solutions of chemical compounds were prepared in dimethyl sulfoxide (DMSO) (10 mM). These were further diluted at different concentrations in TNC-B and incubated with ADAMTS-1, ADAMTS-4, ADAMTS-5, ADAMTS-7 or ADAMTS-8 (10 nM) for 1 h at 37 °C. Blank samples were prepared using buffer only and the rate of cleavage for blank reactions was subtracted from the rates measured in the presence of enzyme. Upon addition of the indicated ADAMTS-7 FRET substrates (40 µM), the fluorescence was measured immediately using a FLUOstar Omega microplate reader (BMG Labtech, Germany) with an excitation filter wavelength of 485 nm and an emission filter wavelength of 520 nm. […]
Supplementary Figure 6: Cleavage of ATS7FP7 by members of the ADAMTS family. […] Fluorescence was detected (λex = 485 nm, λem = 520 nm) for 8 h at 37°C and reported as relative fluorescence units (RFU). […]

ADAMTS-8 = molecular target: T2, ADAMTS-8 (Homo sapiens, UniProt Q9UP79); experiment: Cleavage of ATS7FP7 by ADAMTS-8; type: biochemical; settings: ADAMTS-8 10 nM, ATS7FP7 40 μM
T2 construct: made in house; host or cells: HEK293T
T2 sequence (Q9UP79 214-889): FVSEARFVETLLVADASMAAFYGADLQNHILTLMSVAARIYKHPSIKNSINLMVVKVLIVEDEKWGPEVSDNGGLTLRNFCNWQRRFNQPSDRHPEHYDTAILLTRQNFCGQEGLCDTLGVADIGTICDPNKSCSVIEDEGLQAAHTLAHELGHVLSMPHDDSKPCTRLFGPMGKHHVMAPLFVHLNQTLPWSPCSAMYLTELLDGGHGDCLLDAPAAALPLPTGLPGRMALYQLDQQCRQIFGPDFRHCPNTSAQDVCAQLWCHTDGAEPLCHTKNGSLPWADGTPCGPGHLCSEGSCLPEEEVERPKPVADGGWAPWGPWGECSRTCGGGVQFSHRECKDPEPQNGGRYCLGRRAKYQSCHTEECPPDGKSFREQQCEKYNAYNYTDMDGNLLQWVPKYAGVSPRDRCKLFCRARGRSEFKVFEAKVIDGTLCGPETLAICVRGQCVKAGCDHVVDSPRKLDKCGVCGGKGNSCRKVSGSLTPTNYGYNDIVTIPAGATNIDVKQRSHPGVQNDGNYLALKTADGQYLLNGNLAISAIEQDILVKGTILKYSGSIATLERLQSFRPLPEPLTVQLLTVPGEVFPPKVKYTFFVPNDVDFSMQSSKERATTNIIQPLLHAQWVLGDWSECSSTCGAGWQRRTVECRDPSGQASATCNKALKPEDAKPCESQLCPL
Experimental: All enzyme assays were conducted in TNC-B buffer (50 mM Tris- HCl, pH 7.5, 150 mM NaCl, 10 mM CaCl2, and 0.02% NaN3) at 37 °C in 384 well plates (Cat. No: 784900, Greiner Bio-One, Austria). To avoid the formation of inhibitor or peptide aggregates, the detergent Brij-35 (0.05%) was added to TNC-B[13]. For inhibition studies, stock solutions of chemical compounds were prepared in dimethyl sulfoxide (DMSO) (10 mM). These were further diluted at different concentrations in TNC-B and incubated with ADAMTS-1, ADAMTS-4, ADAMTS-5, ADAMTS-7 or ADAMTS-8 (10 nM) for 1 h at 37 °C. Blank samples were prepared using buffer only and the rate of cleavage for blank reactions was subtracted from the rates measured in the presence of enzyme. Upon addition of the indicated ADAMTS-7 FRET substrates (40 µM), the fluorescence was measured immediately using a FLUOstar Omega microplate reader (BMG Labtech, Germany) with an excitation filter wavelength of 485 nm and an emission filter wavelength of 520 nm.
Supplementary Figure 6: Cleavage of ATS7FP7 by members of the ADAMTS family. A) ATS7FP7 (40 μM) was incubated either with ADAMTS-1, -4, -5, -7, or -8 (10 nM). Fluorescence was detected (λex = 485 nm, λem = 520 nm) for 8 h at 37°C and reported as relative fluorescence units (RFU). The data are presented as average ± SEM (n=3) and were fitted with a linear regression. […]

Glu-Ala-Ala-Ala-Arg↓Ala-Glu↓Ala-Ala-Ala-Lys [ATS7FP7]
Km (ADAMTS-4): 9.5 ± 1.7 µM | kcat (ADAMTS-4): 0.116 ± 0.0060 s⁻¹ | cleavage by ADAMTS-8 (ADAMTS-8): neither ADAMTS-1 nor ADAMTS-8 were able to cleave ATS7FP7
